Here are results for 9 compounds from patent US4164448A, “Activation of cholesterol oxidase for cholesterol assay” (Boehringer Mannheim GmbH, priority 1973, dated 1979).

Read-outs that look alike come from different tables or passages of the source.

Assay [1] deals with cholesterol oxidase. In words: Activation of cholesterol oxidase by surface-active compounds. In kind it is biochemical. Conditions: for activation of cholesterol oxidase: result in words; for appropriate concentration range of surface-active compound for activation: too small an amount gives no activation, too large denatures the enzyme. The source says: In addition, other surface-active substances with lipophilic and hydrophilic properties which contain at least one hydroxyl group, can also be used. Examples of such compounds include ethanol, butyl-diglycol and hexyleneglycol.
The appropriate concentration range, as well as the optimum concentration, can be experimentally determined for all appropriate surface-active agents.

The test system of assay [2] is cholesterol oxidase. In words: Determination of cholesterol in serum with detergent-free cholesterol oxidase, extinction at 240 nm. In kind it is biochemical. The following applies: 0.4% in 0.5 M potassium phosphate buffer pH 7.5, 0.1 U enzyme; without surface-active agent 15 minutes were required. As for the experimental part: 0.05 ml. of serum were added to 10 ml. 0.5 M potassium phosphate buffer of pH 7.5 which contained 0.4% hydroxypolyethoxydodecane. The extinction (E1) was read off at 240 nm in a suitable spectrophotometer and the reaction started with 0.02 ml. (0.1 U) of storage-stable cholesterol oxidase, freed from traces of detergent, in 1 M aqueous ammonium sulfate solution. After 3 minutes, the extinction (E2) was read off. The concentration of the cholestenone formed and thus of the cholesterol was given by the difference between the first and second readings, having regard to the molar extinction coefficients for […] at 240 nm. The measurement of a typical sample gave 62 mg.% free cholesterol and 167 mg.% total cholesterol (after saponification).
A comparative determination but without the addition of the surface-active agent required a reaction time of 15 minutes.

For assay [3], the system named is cholesterol oxidase. The following applies: 1 M ammonium sulfate, 33° C. As for the experimental part:
The experiments were carried out with an octyl-phenol-ethylene oxide adduct.

On to `OC1CCCCC1` [cyclohexanol], for which, in the assay with cholesterol oxidase [1], the “activation of cholesterol oxidase” value was “no activation”.

On to `OCCO` [ethylene glycol], for which, in the assay with cholesterol oxidase [1], the “activation of cholesterol oxidase” value is “no activation”.

With `OCC(O)CO` [glycerol], the “activation of cholesterol oxidase” value in the assay with cholesterol oxidase [1] is recorded as “no activation”.

`CO` [methanol]: the “activation of cholesterol oxidase” value with cholesterol oxidase [1] was “no activation”.

Regarding `C[C@H](CCC(=O)O)[C@H]1CC[C@H]2[C@@H]3CC[C@@H]4C[C@H](O)CC[C@]4(C)[C@H]3C[C@H](O)[C@]12C` [sodium desoxycholate], the “appropriate concentration range of surface-active compound for activation” value (shortened to “appropriate concentration range”) in the assay with cholesterol oxidase [1] was 0.03 to 0.05 wt.%.

With desoxycholates, the “activation of cholesterol oxidase” value in the assay on cholesterol oxidase [1] was “Similarly good results”.

For hydroxypolyethoxydodecane, the “appropriate concentration range” value in the assay with cholesterol oxidase [1] lay in the range of 0.15 to 0.6 wt.%. The “reaction time of the cholesterol determination” value in the assay with cholesterol oxidase [2] came out at 3 min.

Turning to octyl-phenol-ethylene oxide adduct, the “Activity of cholesterol oxidase in %, referred to freshly prepared enzyme” value came to 60% in the assay with cholesterol oxidase [3] (detergent 0.02%, storage period 10 days); 40% with cholesterol oxidase [3] (detergent 0.02%, storage period 22 days); 7% in the assay on cholesterol oxidase [3] (detergent 0.05%, storage period 10 days); 1% in the assay on cholesterol oxidase [3] (detergent 0.05%, storage period 22 days); 3% with cholesterol oxidase [3] (detergent 0.6%, storage period 10 days); 1% with cholesterol oxidase [3] (detergent 0.6%, storage period 22 days). Moreover, the “Activity of cholesterol oxidase in %, referred to freshly prepared enzyme” value with cholesterol oxidase [3] (detergent amount not printed (column between 0.05% and 0.6%), storage period 10 days) is reported as 7%; in the assay with cholesterol oxidase [3] (detergent amount not printed (column between 0.05% and 0.6%), storage period 22 days), 1%. Also, in the assay on cholesterol oxidase [1], the “appropriate concentration range” value is recorded as 0.03 to 0.1 wt.%.

For “polyoxyethylene derivatives of sorbitol anhydrides”, the “appropriate concentration range” value with cholesterol oxidase [1] was in the range of 0.15 to 0.6 wt.%.
